Experimental data from patent publication US8058243B2, “Method for treating a brain cancer with ifenprodil” (HSC Research and Development Limited Partnership, priority 2006, dated 2011).
Counter-ions that a name gives are not always drawn. Like-named read-outs stand apart in the source and are kept apart here.

System: murine neural precursor cells (neurosphere cultures)
Assay: HTS of LOPAC library against secondary neurosphere cultures, MTT proliferation assay at 3 μM, day 7 (z score, P value)
Format: cell-based, mouse
[1] = LOPAC library screen, 3 μM, MTT, secondary neurosphere cultures, day 7
[2] = LOPAC primary screen, neurosphere MTT proliferation, 3 μM, day 7
[3] = yes/no: significantly inhibited neurosphere proliferation in primary screen
[4] = LOPAC library screen, 3 μM, MTT, neurosphere cultures
[5] = yes = significantly inhibited neurosphere proliferation (P<0.01) in the primary screen
[6] = yes/no: significantly inhibited neurosphere proliferation (P<0.01) in the primary screen
[7] = LOPAC library screen at 3 μM, MTT, secondary neurosphere cultures, screened in singlets
[8] = LOPAC library screen at 3 μM, secondary neurosphere cultures, MTT

| Structure (SMILES) | Z score [2] | Activity [3] | Z Score [4] | Activity [6] | other results |
| --- | --- | --- | --- | --- | --- |
| Cc1ccc(=O)n(-c2ccccc2)c1 [Pirfenidone] | −1.482 | no |  |  | Z Score [1]: −1.482 |
| CN1C(C(=O)Nc2ccccn2)=C(O)c2ccccc2S1(=O)=O [Piroxicam] | 0.253 |  | 0.2527 |  | Activity [5]: no |
| COc1cc([C@@H]2c3cc4c(cc3[C@H](O)[C@H]3COC(=O)[C@H]23)OCO4)cc(OC)c1OC [Podophyllotoxin] | −11.147 |  |  | yes | Z Score: −11.15 |
| O=C(C1CCCCC1)N1CC(=O)N2CCc3ccccc3C2C1 (stereo not drawn) [Praziquantel] | −2.296 |  |  |  | Z Score [1]: −2.296; Activity [5]: no |
| COc1cc2nc(N3CCN(C(=O)c4ccco4)CC3)nc(N)c2cc1OC [Prazosin hydrochloride] | −2.902 |  |  |  | Activity: yes; Z Score [1]: −2.902 |
| CC(=O)[C@H]1CC[C@H]2[C@@H]3CC=C4C[C@@H](OS(=O)(=O)[O-])CC[C@]4(C)[C@H]3CC[C@]12C.[Na+] [Pregnenolone sulfate sodium] | 2.653 | no |  |  | Z Score [7]: 2.653 |
| CCCNC(C)C(=O)Nc1ccccc1C (stereo not drawn) [Prilocaine hydrochloride] | 1.509 | no |  |  | Z Score [7]: 1.509 |
| CCC1(c2ccccc2)C(=O)NCNC1=O [Primidone] | 0.619 |  | 0.6187 |  | Activity: no |
| CCN(CC)CCNC(=O)c1ccc(N)cc1 [Procainamide hydrochloride] | 0.654 |  | 0.6535 | no |  |
| CCN(CC)CCOC(=O)c1ccc(N)cc1 [Procaine hydrochloride] | 0.550 |  | 0.5501 | no |  |
| CN1CCN(CCCN2c3ccccc3Sc3ccc(Cl)cc32)CC1 [Prochlorperazine dimaleate] |  |  |  | no | Z Score (168 h, 3 µM): −0.8602; Z score (168 h, 3 µM): −0.860 |
| CC(=O)[C@H]1CC[C@H]2[C@@H]3CCC4=CC(=O)CC[C@]4(C)[C@H]3CC[C@]12C [Progesterone] | 0.425 | no | 0.4252 |  |  |
| CCCN(CCC)C(=O)C(CCC(=O)O)NC(=O)c1ccccc1 (stereo not drawn) [Proglumide] | −1.907 |  |  |  | Z Score [1]: −1.907; Activity [5]: no |
| CN(C)CCCN1c2ccccc2Sc2ccccc21 [Promazine hydrochloride] | −0.888 |  |  | no | Z Score [8]: −0.8882 |
| CC(CN1c2ccccc2Sc2ccccc21)N(C)C (stereo not drawn) [Promethazine hydrochloride] | 0.475 |  | 0.4746 | no |  |
| CCCNCC(O)COc1ccccc1C(=O)CCc1ccccc1 (stereo not drawn) [Propafenone hydrochloride] | −0.967 |  |  |  | Z Score [8]: −0.9673; Activity [5]: no |
| CC(C)[N+](C)(CCOC(=O)C1c2ccccc2Oc2ccccc21)C(C)C [Propantheline bromide] |  | no |  |  | Z Score (168 h, 3 µM): −1.534; Z score (168 h, 3 µM): −1.534 |
| CCCn1cnc2c1c(=O)n(CCCCC(C)=O)c(=O)n2C [Propentofylline] | 0.156 | no | 0.1563 |  |  |
| CCC(=O)c1ccc2c(c1)N(CCCN(C)C)c1ccccc1S2 [Propionylpromazine hydrochloride] | −1.584 |  |  | no | Z Score [1]: −1.584 |
| CC(C)c1cccc(C(C)C)c1O [Propofol] |  |  |  |  | Activity: no; Z Score: 0.3768; Z score: 0.377 |
| C=CC1=C(C)c2cc3[nH]c(cc4nc(cc5[nH]c(cc1n2)c(C)c5CCC(=O)O)C(CCC(=O)O)=C4C)c(C)c3C=C [Protoporphyrin IX disodium] |  |  |  |  | Z Score (168 h, 3 µM): −3.441; Z score (168 h, 3 µM): −3.441; Activity [5]: yes |
| CNCCCC1c2ccccc2C=Cc2ccccc21 [Protriptyline hydrochloride] | 0.760 | no | 0.7603 |  |  |
